Columns and labels:
RARβ = target: T1, RARβ (Homo sapiens, UniProt P10826); assay: Selectivity profile against human RARs (RARβ); assay type: biochemical
T1 sequence (P10826 1-455): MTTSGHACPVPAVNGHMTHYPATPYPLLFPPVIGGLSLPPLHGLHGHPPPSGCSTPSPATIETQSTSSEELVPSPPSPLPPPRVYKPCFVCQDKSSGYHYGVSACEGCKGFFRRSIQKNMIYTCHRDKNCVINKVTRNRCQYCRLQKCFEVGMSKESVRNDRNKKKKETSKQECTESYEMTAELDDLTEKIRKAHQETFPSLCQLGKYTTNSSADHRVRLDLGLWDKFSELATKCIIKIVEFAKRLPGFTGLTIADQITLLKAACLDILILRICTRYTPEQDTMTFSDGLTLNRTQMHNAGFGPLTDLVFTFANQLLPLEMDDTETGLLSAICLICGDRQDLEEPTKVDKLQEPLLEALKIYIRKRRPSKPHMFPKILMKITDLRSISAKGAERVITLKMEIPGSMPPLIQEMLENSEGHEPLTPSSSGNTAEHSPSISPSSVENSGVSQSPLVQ

RAR γ = target: T2, RAR γ (Homo sapiens, UniProt P13631); assay: Selectivity profile against human RARs (RARγ); assay type: biochemical
T2 sequence (P13631 1-454): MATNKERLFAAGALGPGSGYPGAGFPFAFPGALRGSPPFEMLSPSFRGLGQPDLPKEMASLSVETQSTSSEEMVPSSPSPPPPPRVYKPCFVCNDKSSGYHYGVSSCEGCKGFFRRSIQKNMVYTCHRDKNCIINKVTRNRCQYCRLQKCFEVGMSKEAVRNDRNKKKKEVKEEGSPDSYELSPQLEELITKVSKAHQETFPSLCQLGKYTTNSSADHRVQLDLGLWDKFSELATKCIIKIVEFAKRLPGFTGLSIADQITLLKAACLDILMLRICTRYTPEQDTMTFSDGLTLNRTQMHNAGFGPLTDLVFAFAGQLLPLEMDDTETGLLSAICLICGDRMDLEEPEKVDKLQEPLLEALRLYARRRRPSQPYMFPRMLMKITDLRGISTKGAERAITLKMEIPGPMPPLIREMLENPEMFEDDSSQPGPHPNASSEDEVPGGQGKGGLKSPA

Effector T cells (Teff) = assay: Treg suppression assay (proliferation of CFSE-labelled Teff); assay type: cell-based, human; conditions: lowest (8:1) Teff:Treg titration, FIG. 2e
Method: Effector T cells (Teff) were labelled with carboxyfluorescein succinimidyl ester (CFSE, Invitrogen) according to standard protocols. Cells were washed with phosphate buffered saline (PBS) to remove excess protein. Cells were then incubated with a 1 μM/L CFSE solution in the dark at room temperature for 4 minutes. The reaction was then quenched with 9 ml of complete medium.
Teff were activated with anti-CD3/anti-CD28 micro beads at a bead: Teff ratio of 0.02:1. 1×10^5 Teff were then cultured either alone or with Tregs in serial dilutions. The ratios of Teff: Treg were 1:1, 2:1, 4:1, and 8:1. This was done in X-VIVO-15 and proliferation rates were assessed by flow cytometry after 5 days of incubation.
Percentage suppression (S) of proliferation was calculated using the following formula:
Where c=percentage of proliferating precursors in the presence of Tregs and d=percentage of proliferating precursors in the absence of Tregs.

MAdCAM-1 = assay: In-vitro trafficking assay, MAdCAM-1 coated Ibidi flow chamber; assay type: cell-based, human; conditions: agonist-treated Tregs from CD patients compared to cells expanded under standard conditions
Method: Ibidi (Martinsreid, Germany) μ-Slides VI″ were coated with recombinant human MAdCAM-1 (R&D Systems, Minneapolis, Minn.), at a concentration of 10μg/ml and incubated overnight. Cells from two CD patients that had previously undergone ex vivo expansion under two parallel conditions (Rapa and Rapa+RAR568) and had been frozen in liquid nitrogen were defrosted and rested overnight. Rested cells were then activated with rhCCL25 (R&D systems) and passed through the coated Ibidi flow chamber at a rate of 1 dyne/cm^2. The total number of cells, as well as those rolling, adherent and crawling was quantified from six randomly selected fields of view per treatment.
In order to assess the physiological relevance of the induction of α4β7 expression by RAR568, treated and untreated Tregs from CD patients were passed through a MAdCAM-1 coated flow chamber (FIG. 10). The total number of cells adherent to the chamber, as well as their stages of rolling, adhesion and crawling, were compared to cells that were expanded under standard conditions.

[1] = test system: human foetal small bowel xenografts; assay: C.B-17 SCID mouse human intestinal xenotransplant model, Treg trafficking; assay type: in vivo
Method: Mice are injected with anti-asialo GM1 antibody at day −2 prior to transfer in order to deplete natural killer (NK) cells. On the day of Treg transfer, mice were treated with Tregs that were either expanded with Rapamycin alone or with the addition of RAR568. Mice also received 1000IU of rhlL-2 IP on the day of Treg transfer, to support the Treg in circulation. After three days in circulation, the presence of CFSE labelled Tregs was assessed by FACS in digested xenograft samples and immunofluoresence on frozen sections. […] Induction of α4β7 is functionally relevant in vivo (e) Control XG, no Tregs, (f) XG from mouse treated with Rapa Tregs (g) XG from mouse treated with Rapa+RAR568 Tregs.
The C.B-17 SCID mouse human intestinal xenograft model has been previously described^28,29. Institutional Review Board (IRB) and Institutional Animal Care and Use Committee (IACUC) approvals were obtained prospectively (Ethics Committee for Animal Experimentation, Hebrew University of Jerusalem; MD-11-12692-4 and the Helsinki Committee of the Hadassah University Hospital; 81-23/04/04). Tregs were labelled with CFSE (Invitrogen) prior to transfer, as per manufacturer's instructions. Xenografts were processed as per LPMC digestion protocol. CFSE positive cells were detected by flow cytometry. Additionally, CFSE positive cells were detected by immunofluorescence on frozen sections from treated xenografts.
Fresh xenograft sections were fixed and stored in OCT. Fixed cryostat sections were blocked with 20% fetal calf serum (FCS) and stained with rat anti human CD45 (Invitrogen) and mouse antihuman FOXP3 (Biolegend), followed by donkey anti-rat AF594 (Invitrogen) and donkey anti-mouse NL637 (RnD Systems).
To assess if the induction of α4β7 was functionally relevant in vivo, cells treated with RAR568 or cells expanded under standard conditions were fluorescently labelled and transferred into a SCID mouse xenografted with human fetal intestinal small bowel by intra-venous injection. Inflammation was induced in the xenografts with Mycobactrium Avium Paratuberculosis (MAP). […]

- selectivity for RARα over RARβ (RARβ): 290 fold
- selectivity over RAR γ (RAR γ): > 13,000 fold
Structure (SMILES): CCOc1c(Cl)cc(C(=O)Nc2ccc(C(=O)O)c(C)c2)cc1OC(C)C [RAR568]
- Suppressive ability of expanded Tregs (Effector T cells (Teff)): highly suppressive even at the lowest (8:1) titration
- total cells and cells rolling, adherent and crawling in MAdCAM-1 coated flow chamber (MAdCAM-1): significantly more total cells as well as cells at each condition of migration
- Treg trafficking to xenografts ([1]; 72 hours following i.v. transfer of agonist-treated Tregs, compared to Tregs expanded under standard conditions): significantly more likely to traffic to xenografts
- Treg trafficking to inflamed xenografts ([1]; MAP-induced inflammation, agonist-treated Tregs vs standard conditions): significantly more RAR568-treated cells trafficked to the inflamed xenografts
- presence of CFSE labelled FOXP3+ Tregs in cryosections from inflamed xenografts ([1]; immunofluorescence, FIG. 5g): evident

Reference: patent US20220062340A1, “IMMUNOTHERAPEUTIC METHODS AND COMPOSITIONS” (KING'S COLLEGE LONDON, priority 2018, published 2022)
